Measurements as given in article PMC10788912 (Journal of Medicinal Chemistry, 2023).
Read-outs that look alike come from different tables or passages of the source.

What was measured:
[1] = system: human cervix adenocarcinoma (HeLa) cells; experiment: Phototoxicity testing, MTT assay, HeLa; type: cell-based
Experimental: (§1) The cells were treated with tested compounds diluted in Earle’s balanced salt solution (EBSS) for 1 h in the dark to allow the complexes to penetrate the cells. Afterward, the cells were irradiated for 1 h with blue light (LZC-4 photoreactor equipped with 16 lamps LZC-420, λmax = 420 nm) or sham irradiated. EBSS containing an Ir complex was then removed, and cells were incubated in the complete, drug-free Dulbecco’s modified Eagle’s medium (DMEM).
(§2) The metabolic activity of the cells (proportional to number of viable cells) was determined 72 h after irradiation using the standard 3-[4,5-dimethylthiazol-2-yl]-2,5 diphenyl tetrazolium bromide (MTT) assay. […] For comparative purposes (and at the reviewer’s request), the clinically used metallodrug cisplatin was included in the experiment.
Therefore, the photoactivation of Ir2 was tested also using a green (λmax = 545 nm) or red (λmax = 613 nm) light irradiation. For this experiment, samples were irradiated with a visible cool white lamp (LZC-Vis, Luzchem), and the appropriate green or red filter was applied; spectral characteristics can be seen in Figure S58.
The phototoxic potency of Ir complexes 1–4 was determined against human cancer Hela, A375, and HCT116 cell lines. […] The number of cells was determined using a standard MTT or SRB assay. […] The phototoxic index (PI) was calculated as a ratio of IC50 (dark)/IC50 (irradiated).

[2] = system: human colon adenocarcinoma HCT116 cells; experiment: Phototoxicity testing, MTT assay, HCT116; type: cell-based; details: MTT 72 h
Experimental: as §1, §2
(§3) The phototoxic potency of Ir complexes 1–4 was determined against human cancer Hela, A375, and HCT116 cell lines. Cells were seeded on 96-well tissue culture plates at a density of 5 × 10^3 cells/well in 100 μL of complete DMEM medium and cultured overnight in a humidified incubator. […] The number of cells was determined using a standard MTT or SRB assay. […] The phototoxic index (PI) was calculated as a ratio of IC50 (dark)/IC50 (irradiated).

[3] = system: human skin melanoma cells A375; experiment: Phototoxicity testing, MTT assay, A375; type: cell-based; details: MTT 72 h
Experimental: as §1, §2, §3

[4] = system: human lung fibroblast MRC5 cells; experiment: Long-term dark effect on noncancerous cells, MTT, MRC5; type: cell-based; details: continuous exposure 48 h
Experimental: The low toxicity of nonirradiated Ir complexes toward human noncancerous cells was confirmed by the fact that their effect was very low or even undetectable during long-term exposure when the human primary prostate epithelial hTERT EP156T and human lung fibroblast MRC5 cells were exposed to the complexes continuously for 48 h (Table 2).
After the period of incubation, an MTT assay was performed and evaluated.

[5] = system: caspase-3 in HeLa cells; experiment: Caspase-3/7 activity assay; type: cell-based, human; details: equitoxic concentrations, 1 h dark, 1 h irradiation 420 nm, 2 h recovery
Experimental: Figure 7 and Figure S59 show the morphological alteration observed 2 h after the HeLa cells were treated with Ir complexes 1–4 at their equitoxic concentrations (IC50,72h) and irradiated. […] The whole cells were swollen and rounded (Figure 7B–E). A significant cytoplasm blebbing was evident in the early stages of the process (Figure 7F). The bubbles around the cells were completely clean inside (Figure 7F), distinguishing them from the budding process typical of apoptosis.
The activation of caspase-3 was detected using CellEvent Caspase-3/7 Green - Active Caspase-3/7 Assay Kit (Thermo Fisher Scientific). Briefly, HeLa cells were seeded at a 6-well plate at 3 × 10^5 cells/well density and treated and irradiated as described above (1 h preincubation in the dark, 1 h irradiation at 420 nm). After 2 h of recovery in compound-free media, cells were stained with the CellEventCaspase 3/7 Green Detection Reagent according to the manufacturer’s protocol, and the fluorescence signal was analyzed by flow cytometry.

Row | Compound | IC50 ([1]; 1 h dark, then blue light 1 h, λmax = 420 nm, 58 ± 2 W m–2, MTT 72 h after irradiation, read-out: IC50 HeLa irrad) | IC50 ([1]; sham irradiated, MTT 72 h, read-out: IC50 HeLa sham irrad) | IC50 ([2]; blue light 1 h, λmax = 420 nm, 58 ± 2 W m–2, read-out: IC50 HCT116 irrad) | IC50 ([2]; sham irradiated, read-out: IC50 HCT116 sham irrad) | IC50 ([3]; blue light 1 h, λmax = 420 nm, 58 ± 2 W m–2, read-out: IC50 A375 irrad) | IC50 ([3]; sham irradiated, read-out: IC50 A375 sham irrad) | IC50 [4] | caspase-3 activity [5]
1 | N.N.[Cl][Pt][Cl] [cisPt, cisplatin] | 27 ± 3 µM | 23 ± 4 µM | 27 ± 7 µM | 19 ± 4 µM | 15 ± 2 µM | 14 ± 1 µM | 6 ± 0.7 µM | 
2 | CN[C@@H]1C[C@H]2O[C@@](C)([C@@H]1OC)n1c3ccccc3c3c4c(c5c6ccccc6n2c5c31)C(=O)NC4 [staurosporine] |  |  |  |  |  |  |  | significantly increased signal
